How the values were obtained:
Assay type in all cases: cell-based
melanoma cells B16F10 = test: MTS cell viability assay, B16F10; settings: Mus musculus
Procedure: (§1) Human carcinoid cells, NCI-H727 (ATCC, Manassas, Va.), were cultured under standard conditions. Squamous cell carcinoma of head and neck cells, MDA1986 (Myers, et al. (2002) Clin. Cancer Res. 8:293) and JMAR (Swan, et al. (2003) Oral Oncol. 39:648-55); and melanoma cells lines B16F10 (ATCC, Manassas, Va.) and SKMEL28 (CLS, Eppelheim, Germany) were cultured in DMEM medium supplemented with 10% heat-inactivated fetal bovine serum (Sigma-Aldrich, St. Louis, Mo.), 1×MEM-essential amino acid, 1×MEM vitamin, and penicillin/streptomycin (Sigma-Aldrich, St. Louis, Mo.) in a humid environment of 5% CO2 at 37° C. Activity of withanolides against DRO81-1 and TT medullary thyroid cancer cells was also determined.
(§2) Cells were cultured in 96 well plates at a concentration of 1-2×10^4 cells/mL. Cell viability was assessed with the nonradioactive cell proliferation MTS assay using Cell Titer 96AQUEOUS One Solution Reagent (PROMEGA, Madison, Wis.), according to the manufacturer's instruction. After a 72-hour treatment, 20 μL of Cell Titer 96AQUEOUS One Solution Reagent were added to each well and incubated for 3 hours at 37° C. 5% CO2, and formazan absorbance was measured at 490 nm.

[1] = tested on: human melanoma SKMEL28 cells; test: MTS cell viability assay, SKMEL28; settings: Homo sapiens; for IC50: SK-MEL-28, 72 h
Procedure: as §1, §2
A cell viability MTS assay was carried out to determine the anti-cancer effect of the withanolides on human melanoma SKMEL28 cells. Cells were treated for 72 hours and cell viability was determined according to the manufacturer's instruction.

[2] = tested on: squamous cell carcinoma of head and neck cells MDA1986; test: MTS cell viability assay, MDA1986; settings: Table 1, 72-hour treatment
Procedure: as §1, §2

[3] = tested on: squamous cell carcinoma of head and neck cells JMAR; test: MTS cell viability assay, JMAR
Procedure: as §1, §2

[4] = tested on: human carcinoid cells NCI-H727; test: MTS cell viability assay, NCI-H727; settings: Table 1, NCI-H727, 72-hour treatment, read-out: IC50
Procedure: as §1, §2

MRC-5 = test: MTS cell viability assay, MRC-5; settings: Homo sapiens, MRC5, Table 1, 72-hour treatment
[5] = tested on: DRO81-1 medullary thyroid cancer cells; test: MTS cell viability assay, DRO81-1; settings: Table 1; DRO81-1; 72-hour treatment; read-out: IC50
Procedure: as §1, §2

[6] = tested on: TT medullary thyroid cancer cells; test: MTS cell viability assay, TT; settings: Table 1, 72-hour treatment
Procedure: as §1, §2

SUP-B15 Ph+ ALL cells = test: MTS assay, SUP-B15
Procedure: (§3) Cell proliferation was analyzed using MTS assay and Trypan Blue exclusion. Annexin V-FITC/Propidium Iodide flow cytometry was used to analyze the induction of apoptosis in SUP-B15 cells after treatment with anolides. Cell cycle analysis was performed using propidium iodide flow cytometry. Modulation of BCR-ABL and downstream effector proteins was determined by western blot analysis. Syngery between withanolides and TKIs was evaluated using MTS viability to calculate combination indices. Apoptotic synergy was evaluated using Annexin V/PI.

normal MRC-5 fibroblasts = test: MTS assay, normal MRC-5 fibroblasts (Example 7); settings: Homo sapiens, MRC5
Procedure: as §3

SUP-B15 cells [7] = test: Trypan blue exclusion assay, SUP-B15; settings: 5×, 2×, 1×, 0.5×IC50
Procedure: as §3, with “Syngery” left out

SUP-B15 cells [8] = test: Annexin V/propidium iodide apoptosis, SUP-B15; settings: 48 hour; approximately 10×IC50 (Withaferin A, X001), 4×IC50 (X003)
Procedure: as §3
At no concentrations was the population of cells in necrosis significant.

SUP-B15 cells [9] = test: Cell cycle analysis by PI flow cytometry, SUP-B15; settings: 48 hour treatment
Procedure: as §3

SUP-B15 Ph+ALL cells = test: Combination with imatinib, MTS viability, SUP-B15; settings: 16 combinations
Procedure: as §3

With CC1=C(CO)C(=O)O[C@@H]([C@@H](C)[C@H]2CC[C@H]3[C@@H]4C[C@H]5O[C@]56[C@@H](O)C=CC(=O)[C@]6(C)[C@H]4CC[C@]23C)C1 [Withaferin A, reference compound] the IC50 (melanoma cells B16F10; B16-F10, Table 1, 72-hour treatment) was 260 nM, the IC90 (melanoma cells B16F10; B16-F10, Table 2) was 1230 nM and the IC50 ([1]; Table 1, 72-hour treatment) was 3960 nM. For the same molecule, the IC50 ([1]; Table 3, treated for 72 hours, NA = no activity) was 3150 nM, the IC90 ([1]; SK-MEL-28, Table 2) was 680 nM and the IC50 [2] was 800 nM. It also gave an IC50 ([3]; Table 1, 72-hour treatment) of 2000 nM, an IC90 ([3]; Table 2) of 3600 nM and an IC50 [4] of 3880 nM. The IC50 (MRC-5) was 200 nM, the IC50 [5] was 1090 nM and the IC50 [6] was 1130 nM. The IC50 (SUP-B15 Ph+ ALL cells; Homo sapiens, SUP-B15) was 132 nM, the “Fold Difference” value (SUP-B15 Ph+ ALL cells; MRC-5 vs SUP-B15 IC50) was 17X and the IC50 (normal MRC-5 fibroblasts) was 2200 nM. For the same molecule, the “cell death at 24 hours, trypan blue exclusion” value (SUP-B15 cells [7]) was “did not cause significant cell death at 24 hours at any concentration tested”, the induction of apoptosis (SUP-B15 cells [8]) was “almost all cells were in either late or early apoptosis” and the “Cell Cycle (%) G0/G1” value (SUP-B15 cells [9]; 80 nM) was 49.9%. The “Cell Cycle (%) G2/M” value (SUP-B15 cells [9]; 80 nM) was 27.8%, the “Cell Cycle (%) S” value (SUP-B15 cells [9]; 80 nM) was 22.2% and the “Cell Cycle (%) G0/G1” value (SUP-B15 cells [9]; 160 nM) was 50.2%. The “Cell Cycle (%) G2/M” value (SUP-B15 cells [9]; 160 nM) was 28.4%, the “Cell Cycle (%) S” value (SUP-B15 cells [9]; 160 nM) was 21.4% and the “Cell Cycle (%) G0/G1” value (SUP-B15 cells [9]; 320 nM) was 38.4%. For the same molecule, the “Cell Cycle (%) G2/M” value (SUP-B15 cells [9]; 320 nM) was 46.8%, the “Cell Cycle (%) S” value (SUP-B15 cells [9]; 320 nM) was 14.8% and the “Cell Cycle (%) G0/G1” value (SUP-B15 cells [9]; 640 nM) was 23.7%. The “Cell Cycle (%) G2/M” value (SUP-B15 cells [9]; 640 nM) was 71%, the “Cell Cycle (%) S” value (SUP-B15 cells [9]; 640 nM) was 5.3% and the “Cell Cycle (%) G0/G1” value (SUP-B15 cells [9]; 1280 nM) was 47.1%. For the same molecule, the “Cell Cycle (%) G2/M” value (SUP-B15 cells [9]; 1280 nM) was 34.3%, the “Cell Cycle (%) S” value (SUP-B15 cells [9]; 1280 nM) was 18.6% and the “combination index (CI) with imatinib” value (SUP-B15 Ph+ALL cells; 0.25×-1×IC50 of each drug) was 1.3. The synergy with imatinib (SUP-B15 Ph+ALL cells) was “only showed synergy at three of the concentrations tested”.
